# Entries after “also recorded” stand apart in the source; their conditions may differ. Like-named read-outs stand apart in the source and are kept apart here.
# What was measured:
# ScinGOBP2 = ScinGOBP2 (Semiothisa cinerearia, UniProt A0A889XLB8); test: Fluorescence-based competitive binding assay with 1-NPN probe
# Description: A total of 27 volatile compounds were selected for a fluorescence-based competitive binding assay based on previously reported information for S. cinerearia host plants. This experiment was performed on a spectrofluorometer F-380 (Tianjin, China) using slits of 10 nm and a light path of 1 cm. The fluorescent probe N-phenyl-1-naphthylamine (1-NPN) was excited at 337 nm, and emissions were recorded between 390 and 530 nm. The affinity of 1-NPN for ScinGOBP2 was measured by titrating a 2 μM solution of the protein with aliquots of 1 mM 1-NPN in methanol to final concentrations of 1–16 μM. The dissociation constants of 1-NPN and the proteins were calculated using the software GraphPad Prism 8.0. Competitive binding was measured via the titration of the protein/1-NPN (both at 2 μM) mixture by adding aliquots of 1 mM of methanol solution of ligand to final concentrations of 2–30 μM. Dissociation constants of the competitors were calculated using the equation KD = IC50/(1 + [1-NPN]/K1-NPN), where IC50 represents the ligand concentration achieving a 50% decrease in 1-NPN’s initial fluorescence intensity, [1-NPN] represents the free concentration of 1-NPN, and K1-NPN represents the dissociation constant of the complex ScinGOBP2/1-NPN.
# female S. cinerearia = test: Two-choice oviposition preference assay; type: in vivo, Semiothisa cinerearia; settings: 100 μg in paraffin oil vs solvent control; eggs counted after 48 h
# Description: The oviposition preference of female S. cinerearia for the ScinGOBP2 ligands was assessed in a screened enclosure (length/width/height = 86 cm:46 cm:48 cm). To ensure mating of all the female moths, newly emerged males and females were cohabitated in a rearing enclosure (30 cm × 30 cm × 30 cm) at a sex ratio of 1:2 for a period of 2 days. Mated females for subsequent experiments were randomly selected from this enclosure. Each screened cage housed five gravid females. For adult nourishment, a small Petri dish containing 10% honey solution was positioned at the cage’s base center. Test compounds (100 μg, diluted in paraffin oil) or the solvent control (paraffin oil) were applied to a cotton ball, which was then affixed to the opposite inner sides of the cage. After 48 h, the number of eggs deposited on the gauze on both the treatment and control sides was counted. The oviposition preference index was determined using the formula (T − C)/(T + C), where T represents the egg count on the treatment side and C represents the count on the control side. Each experiment was replicated eight times.
# S. cinerearia antennae = test: Electroantennogram (EAG) recordings; design: species or system Semiothisa cinerearia; settings: 10 μL of 10 μg/μL in paraffin oil, control subtracted, n = 12
# Description: Electroantennogram recordings were carried out to measure the antennal responses of S. cinerearia to ScinGOBP2 ligands. The antennae of S. cinerearia adults were carefully removed from the base, and the tips were carefully cut off. The prepared antennae were affixed to electrode holders using conductive electrode gel. Subsequently, a 10 μL aliquot of the test compound (10 μg/μL, diluted in paraffin oil) was applied to a strip of filter paper. This strip was then placed into a 1000 µL pipette tip, serving as a cartridge. The test cartridge was connected to a stimulus controller (CS-55; Syntech, Kirchzarten, Germany) that delivered a 0.5 s stimulus every 30 s at a constant flow rate of 10 mL/s. Antennal signals were recorded using an EAG Pro system (Syntech). In all the experiments, antennae were exposed to a solvent control (paraffin oil) at the beginning and end of a series of sample measurements. Test stimuli were presented in a randomized sequence, interspersed between two control puffs. The EAG responses to the test odors were adjusted by subtracting the mean amplitude of the two control signals. EAG responses were measured from a cohort of twelve insects, each with different antennae (n = 12).
# AipsGOBP2 = system: AipsGOBP2; design: method as in PMID 29778539; settings: cited from earlier work
# OachGOBP2 = system: OachGOBP2; design: method as in PMID 36975901; settings: cited from earlier work
# [1] = KD, competitive displacement of 1-NPN, protein/1-NPN both at 2 μM, ligand 2–30 μM, KD = IC50/(1 + [1-NPN]/K1-NPN), mean ± SE
# [2] = competitive displacement of 1-NPN, protein/1-NPN both at 2 μM, ligand 2–30 μM, KD = IC50/(1 + [1-NPN]/K1-NPN), mean ± SE, read-out: KD
# Sequence of ScinGOBP2 (A0A889XLB8 entry or part of it): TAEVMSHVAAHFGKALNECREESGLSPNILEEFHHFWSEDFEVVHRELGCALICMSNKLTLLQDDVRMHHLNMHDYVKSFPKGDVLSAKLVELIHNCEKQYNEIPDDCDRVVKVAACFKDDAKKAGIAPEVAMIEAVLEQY
smiles,measurement,setting,value
"c1ccc(Nc2cccc3ccccc23)cc1 [1-NPN, N-phenyl-1-naphthylamine, reference compound]",Kd,"ScinGOBP2; dissociation constant (KD) for the ScinGOBP2/1-NPN complexes, direct titration of 2 μM protein with 1-NPN 1–16 μM",2.27 µM
C=CCCCCCCC [1-Nonene],Kd,ScinGOBP2; [1],12.2 ± 0.44 µM
same,Kd,"ScinGOBP2; competitive displacement of 1-NPN, protein/1-NPN both at 2 μM, ligand 2–30 μM, KD = IC50/(1 + [1-NPN]/K1-NPN), mean ± SE",< 15 µM
same,Oviposition preference of mated females,female S. cinerearia,deter S. cinerearia from ovipositing; also recorded: marked repellent behavioral responses
CCCCCCCCCC=O [Decanal],Kd,ScinGOBP2; [2],5.07 ± 0.27 µM
same,"EAG mean response value, males",S. cinerearia antennae; male antennae,0.063 mV
same,Oviposition preference of mated females,female S. cinerearia,significant preference for laying eggs; also recorded: significant attractant behavioral responses
C=C(C)[C@H]1CC=C(C)CC1 [Dipentene],Kd,ScinGOBP2; [1],14.9 ± 0.77 µM
same,"EAG mean response value, females",S. cinerearia antennae; female antennae,0.086 mV
same,Oviposition preference of mated females,female S. cinerearia,deter S. cinerearia from ovipositing; also recorded: marked repellent behavioral responses
CC(=O)CC/C=C(\C)CCC=C(C)C [Geranyl acetone],Kd,ScinGOBP2; [2],2.21 ± 0.17 µM
same,Oviposition preference of mated females,female S. cinerearia,deter S. cinerearia from ovipositing; also recorded: marked repellent behavioral responses
CC/C=C\CCOC(=O)CCC [cis-3-Hexenyl butyrate],Kd,ScinGOBP2; [2],14.17 ± 0.04 µM
same,Oviposition preference of mated females,female S. cinerearia,significant preference for laying eggs; also recorded: significant attractant behavioral responses
CC/C=C\CCOC(=O)CCCC [cis-3-Hexenyl n-valerate],Kd,ScinGOBP2; [2],6.55 ± 0.18 µM
same,Oviposition preference of mated females,female S. cinerearia,significant preference for laying eggs; also recorded: significant attractant behavioral responses
CC/C=C\CCO [cis-3-hexen-1-ol],binding affinity for AipsGOBP2,AipsGOBP2,high binding affinity
CCCCOC(=O)c1ccccc1C(=O)OCCCC [dibutyl phthalate],binding affinity for AipsGOBP2,AipsGOBP2,high binding affinity
CC(C)=CCC/C(C)=C/CC/C(C)=C/CO [farnesol],binding affinity for OachGOBP2,OachGOBP2,high binding affinity
CCCCCCCC/C=C\CCCCCCCC(=O)O [oleic acid],binding affinity for AipsGOBP2,AipsGOBP2,high binding affinity
CC1=CCC2CC1C2(C)C (stereo not drawn) [α-Pinene],Kd,ScinGOBP2; [1],9.41 ± 0.28 µM
same,Oviposition preference of mated females,female S. cinerearia,significant preference for laying eggs; also recorded: significant attractant behavioral responses
CC1=CC[C@H](C(C)C)C=C1 [α-phellandrene],binding affinity for OachGOBP2,OachGOBP2,high binding affinity
C=C1CCC2CC1C2(C)C (stereo not drawn) [β-Pinene],Kd,ScinGOBP2; [1],13.2 ± 0.19 µM
same,Oviposition preference of mated females,female S. cinerearia,deter S. cinerearia from ovipositing; also recorded: marked repellent behavioral responses
C=C1CC/C=C(\C)CC[C@@H]2[C@@H]1CC2(C)C [β-caryophyllene],binding affinity for AipsGOBP2,AipsGOBP2,high binding affinity
